Measurements from paper PMC8998618, “A Pharmacokinetic and Metabolism Study of the TRPC6 Inhibitor SH045 in Mice by LC-MS/MS” (International Journal of Molecular Sciences, 2022).
Where two headings read alike, the source gives them in different places.

Key:
[1] = plasma pharmacokinetics after single i.v. and p.o. administration, NCA; assay type: in vivo, mice; details: for increase in AUCinf with 10-fold dosing / increase in cmax with 10-fold dosing: 20 vs 2 mg/kg BW; for Cmax / Tmax / AUC(0-inf) / AUC(0-t) / MRT / half-life / bioavailability / CL/F / Vd/F / AUCextra / Vz/F: plasma; for bioavailability: from AUCinf, read-out: oral bioavailability (F); for Vd/F: read-out: Vz/F
Method: Analysis of SH045 in samples from plasma, tissue, urine, and microsomal incubations was performed as previously described. Details are described in Supplementary Materials SM2.
Male C57BL/6 mice (25–30 g BW, Charles River, Sulzfeld, Germany) housed in groups under standard conditions and allowed access to lab chow and water ad libitum were used. The in vivo experiments were performed according to the national regulations of animal welfare and were ethically approved by the local committee on animal welfare and the local authorities. Animal experiments were performed under strict consideration of the 3R principles, fully complying with the ARRIVE guidelines. For single SH045 administration mice were assigned to four groups of 12 animals each: 2 and 20 mg/kg BW applied via the i.v. and the p.o. route, respectively. Due to the recommended limited volume for blood collection, each mouse was assigned to a maximum of five different time points each out of 8 (for p.o.) and 9 (for i.v.) for blood collection resulting in six independent plasma concentration values per time point.
SH045 was freshly prepared with DMSO (final concentration 0.5%) and Kolliphor® EL (5% in water). At 7:00 a.m., one hour before drug administration, food was removed. For oral gavage and for i.v. administration into the tail vein the respective dose was applied in a volume of 3 mL/kg BW.
Via heparin-coated catheters a maximum of 50 µL blood was collected from the tail vein at 0.25, 0.5, 1, 2, 3, 4, 6, 8, or 24 h after administration and immediately centrifuged at 4000× g at 4 °C for 10 min. For repeated administration 20 mg/kg BW SH045 were administered at 8:00 a.m. on five consecutive days, once a day. Blood was taken 1 h and 24 h after drug administration. Tissue samples were harvested from isoflurane-euthanized animals at indicated time points. Mice were transcardially perfused with PBS and dissected tissues were washed to remove remaining blood. Plasma and tissue samples were stored at −80 °C until analysis. Urine was collected by bladder puncture at indicated time points.
Pharmacokinetics parameters for SH045 were determined based on non-compartmental model analysis (NCA) using the Phoenix WinNonlin Software 8.3 (Certara, Princeton, NJ, USA). The slope of the terminal phase of the SH045 concentration-time profile (λz) was estimated as absolute values from ≥3 data points using a log-linear regression analysis. The area under the concentration-time curve (AUC) for the time (t) providing the final measurable concentration (AUClast) was calculated using the mixed log-linear trapezoidal rule (linear up, log down). The AUCinf was computed as AUClast + Clast/λz, where the estimated value of the latest data point is used. The systemic total body clearance from plasma (CLp) was calculated as applied dose divided by AUCinf. MRT was calculated as AUMCinf/AUCinf, where area under the first moment curve (AUMC) was defined as area under the curve of the product of time and the plasma drug concentration versus time from zero to infinity. Finally, the AUCextra extrapolates the AUC from the last measured time point to infinity. Vz, the apparent volume of distribution during terminal elimination phase was calculated by Vz = Dose/AUCinf × λz, where λz is the plasma elimination rate constant. The apparent volume of distribution during the terminal phase following extravascular administration based on the fraction of dose absorbed Vz/F = Dose/(AUCinf × λz). The bioavailability (F) of two oral doses SH045 doses were calculated with reference to identical doses administered by intravenous bolus application of SH045 as follows: F = AUCoral/AUCi.v. Tissue binding of SH045 was analyzed exemplarily in lung, liver and kidney homogenate using ultrafiltration. The concentration in the filtrate refers to the unbound SH045 concentration according to tissue binding (%) = (ctot − cfiltrate)/ctotal × 100. For details see Supplementary Materials SM5.

[2] = system: TRPC3/6 channels of rat pulmonary arterial smooth muscle cells (PASMC); design: method as in PMID 29522264; details: cited from earlier work
[3] = male, C57BL/6, mouse, iv, mice, single 2.0 mg/kg BW i.v.
[4] = male, C57BL/6, mouse, iv, mice, single 2.0 mg/kg BW i.v., NCA
[5] = male, C57BL/6, mouse, iv, mice, single 20 mg/kg BW i.v.
[6] = male, C57BL/6, mouse, iv, mice, single 20 mg/kg BW i.v., NCA
[7] = male, C57BL/6, mouse, po, mice, single 2.0 mg/kg BW p.o.
[8] = male, C57BL/6, mouse, po, mice, single 2.0 mg/kg BW p.o., NCA
[9] = male, C57BL/6, mouse, po, mice, single 20 mg/kg BW p.o.
[10] = male, C57BL/6, mouse, po, mice, single 20 mg/kg BW p.o., NCA
[11] = mice, single 2.0 mg/kg BW i.v., NCA
[12] = mice, single 20 mg/kg BW i.v., NCA

With C=C[C@@](C)(O)CC[C@H]1C(=C)C[C@H](OC(=O)NC)[C@H]2C(C)(C)CCC[C@]12C [SH045, (1S,4S,4aR,8aS)-4-((S)-3-Hydroxy-3-methylpent-4-en-1-yl)-4a,8,8-trimethyl-3-methylenedecahydronaphthalen-1-yl methylcarbamate] as the molecule, how does the “total body clearance following oral administration with regard to oral bioavailability” value ([1]; 2 mg/kg p.o.) read?
Its value is 95 mL/min/kg.

What about the “time up to which SH045 is measurable in plasma” value ([1]; 20 mg/kg BW i.v.) of the same molecule?
The value was “up to 24 h”.

What about the “corresponding drug plasma concentration” value ([1]; 20 mg/kg BW i.v., corresponding to urine period 10–30 min) of the same molecule?
The value was 3035 nM.

And the “corresponding drug plasma concentration” value ([1]; 20 mg/kg BW i.v., corresponding to urine period 60–80 min)?
Its value is 1655 nM.

And the “corresponding drug plasma concentration” value ([1]; 20 mg/kg BW i.v., corresponding to urine period 100–120 min)?
Its value is 560 nM.

And the “accumulation of SH045 in plasma after repeated administration” value ([1]; 20 mg/kg i.v. five times once a day, 1 and 24 h after the last injection)?
Its value is “no accumulation”.

What about the “AUCextra percentage, simulated recalculation including late low concentration values” ([1]; 20 mg/kg i.v., NCA) of the same molecule?
The value was 0.8%.

What about the “total body clearance following oral administration with regard to oral bioavailability” value ([1]; 20 mg/kg p.o.) of the same molecule?
Its value is 117 mL/min/kg.

And the “increase in AUCinf with 10-fold dosing” value ([1]; i.v.)?
Its value is 8.1 fold.

And the “increase in cmax with 10-fold dosing” value ([1]; i.v.)?
Its value is 6.5 fold.

What about the Cmax [1, 3] of the same molecule?
Its Cmax is 369 ng/mL.

What about the Tmax [1, 3] of the same molecule?
The Tmax was 0.25 h.

What about the AUC(0-inf) [1, 4] of the same molecule?
The AUC(0-inf) was 351 ng·h/mL.

What about the AUC(0-t) [1, 4] of the same molecule?
Its AUC(0-t) is 338 ng·h/mL.

And the MRT [1, 4]?
Its MRT is 0.75 h.

What about the half-life ([1]; male, C57BL/6, mouse, iv, mice, single 2.0 mg/kg BW i.v., NCA, read-out: t1/2 (converted)) of the same molecule?
Its half-life is 1.28 h.

What about the Cmax [1, 5] of the same molecule?
Its Cmax is 2390 ng/mL.

And the Tmax [1, 5]?
Its Tmax is 0.25 h.

And the AUC(0-inf) [1, 6]?
The AUC(0-inf) was 2840 ng·h/mL.

And the AUC(0-t) [1, 6]?
Its AUC(0-t) is 2720 ng·h/mL.

What about the MRT [1, 6] of the same molecule?
Its MRT is 1.52 h.

And the half-life ([1]; male, C57BL/6, mouse, iv, mice, single 20 mg/kg BW i.v., NCA, read-out: t1/2 (converted))?
Its half-life is 2.37 h.

What about the half-life ([1]; male, C57BL/6, mouse, intravenous, oral, range over both doses and routes, read-out: mean half-life (t1/2)) of the same molecule?
Its half-life is 1.2 to 2.4 h.

What about the bioavailability ([1]; male, C57BL/6, mouse, po, 2 mg/kg p.o.) of the same molecule?
Its bioavailability is 24%.

What about the bioavailability ([1]; male, C57BL/6, mouse, po, 20 mg/kg p.o.) of the same molecule?
The bioavailability was 11%.

And the Cmax [1, 7]?
The Cmax was 68.3 ng/mL.

What about the Tmax [1, 7] of the same molecule?
The Tmax was 0.5 h.

What about the AUC(0-inf) [1, 8] of the same molecule?
The AUC(0-inf) was 84.2 ng·h/mL.

And the AUC(0-t) [1, 8]?
The AUC(0-t) was 69 ng·h/mL.

And the MRT [1, 8]?
The MRT was 1.78 h.

And the CL/F ([1]; male, C57BL/6, mouse, po, mice, single 2.0 mg/kg BW p.o., NCA, read-out: CL/F)?
Its CL/F is 396 mL/min/kg.

What about the Vd/F [1, 8] of the same molecule?
Its Vd/F is 39.5 L/kg.

And the half-life ([1]; male, C57BL/6, mouse, po, mice, single 2.0 mg/kg BW p.o., NCA, read-out: t1/2 (converted))?
Its half-life is 1.15 h.

And the Cmax [1, 9]?
The Cmax was 341 ng/mL.

What about the Tmax [1, 9] of the same molecule?
The Tmax was 0.5 h.

What about the AUC(0-inf) [1, 10] of the same molecule?
The AUC(0-inf) was 314 ng·h/mL.

And the AUC(0-t) [1, 10]?
Its AUC(0-t) is 298 ng·h/mL.

And the MRT [1, 10]?
The MRT was 1.68 h.

And the CL/F ([1]; male, C57BL/6, mouse, po, mice, single 20 mg/kg BW p.o., NCA, read-out: CL/F)?
Its CL/F is 1060 mL/min/kg.

And the Vd/F [1, 10]?
The Vd/F was 171 L/kg.

And the half-life ([1]; male, C57BL/6, mouse, po, mice, single 20 mg/kg BW p.o., NCA, read-out: t1/2 (converted))?
Its half-life is 1.86 h.

What about the AUCextra [1, 11] of the same molecule?
The AUCextra was 3.7%.

And the CL/F [1, 11]?
The CL/F was 94.9 mL/min/kg.

What about the Vz/F [1, 11] of the same molecule?
The Vz/F was 10.5 L/kg.

And the AUCextra ([1]; mice, single 2.0 mg/kg BW p.o., NCA)?
The AUCextra was 17.5%.

And the AUCextra [1, 12]?
The AUCextra was 4.2%.

What about the CL/F [1, 12] of the same molecule?
The CL/F was 117.2 mL/min/kg.

What about the Vz/F [1, 12] of the same molecule?
Its Vz/F is 24.0 L/kg.

And the AUCextra ([1]; mice, single 20 mg/kg BW p.o., NCA)?
The AUCextra was 5.0%.

What about the F ([1]; mice, single 2.0 mg/kg BW i.v. (reference route)) of the same molecule?
Its F is 1.0.

And the F ([1]; mice, single 2.0 mg/kg BW p.o., F = AUCoral/AUCi.v.)?
The F was 0.24.

What about the F ([1]; mice, single 20 mg/kg BW i.v. (reference route)) of the same molecule?
Its F is 1.0.

And the F ([1]; mice, single 20 mg/kg BW p.o., F = AUCoral/AUCi.v.)?
The F was 0.11.

What about the “increase in AUCinf with 10-fold dosing” value ([1]; oral) of the same molecule?
The value was 3.7 fold.

And the “increase in cmax with 10-fold dosing” value ([1]; oral)?
The value was 5.0 fold.

What about the “time up to which SH045 is measurable in plasma” value ([1]; orally) of the same molecule?
The value was “up to 6 h”.

And the “OAG-induced Ca^2+ entry” value [2]?
The value was “inhibition”.
